Source: patent publication US10315998B2, “Amide compound and the preparation method and use thereof” (SHENYANG SINOCHEM AGROCHEMICALS R&D CO., LTD, priority 2015, dated 2019)

Tests used:
Type in all cases: in vivo
[1] = tested on: cucumber downy mildew (Pseudoperonospora cubensis (Berk. et Curt.) Rostov); assay: Protective effect against cucumber downy mildew on potted plants; conditions: grading 100-0 (100 no infection, 0 most serious infection), read-out: protectant activity against cucumber downy mildew
Protocol: (§1) Fungicidal activity of the compounds in the present invention against many kinds diseases were carried out. The procedure of fungicidal activity determination is as follows:
(§2) The fungicidal activity was tested in vivo manner on the potted plants. The test compounds of the present invention were dissolved in proper solvent (choosing the solvent according their dissolving ability to the compounds, the solvents could be acetone, methanol or N,N-dimethylformide, etc. The volume ratio between solvent and liquid sprayed was equal to or less than 0.05) and dilute with water contain 0.1% Tween 80 to given concentrations. Compounds of present invention was sprayed onto the leaves of seedling according to the designed concentration. Meanwhile, water was set as the blank control, three replicates were set for each treatment, the spore suspension were inoculated on the second day after treatment, then the plants were placed in an artificial climate chamber (temperature: day 25° C., night 20° C., relative humidity 95 to 100%). 24 hours later, the plants were moved to green house to cultivated. The plants which not need to control humidity was inoculated spore suspension in green house and cultivated in green house directly. The results were investigated after the plants were fully infected relative to the blank control (usually one week). The test resluts grading 100-0 refers to the <A Manual of Assessment Keys for Plant Diseases> which edited by American Phytopathological Society. “100” refer to no infection and “0” refer to the most serious infection
Protective effect against cucumber downy mildew (Pseudoperonospora cubensis (Berk. et Curt.) Rostov)
According the test method described above, parallel test were carried out between compounds 2, 4, 11, 13, 71 and 111 of present invention and the known compounds KC1, KC2, KC3, KC4, KC5 and KC6 (The compounds were self-made and the structure was confirmed by ^1H NMR consistent with the description of the procedures).

[2] = tested on: corn rust (Puccinia sorghi Schw.); assay: Protective effect against corn rust on potted plants; conditions: grading 100-0
Protocol: as §1, §2
Protective Effect Against Corn Rust (Puccinia sorghi Schw.):
According the test method described above, parallel test were carried out between compound 13 of present invention and the known compound KC1.
According the test method described above, parallel test were carried out between compound 11 of present invention and the known compound KC2.
According the test method described above, parallel test were carried out between compound 71 of present invention and the known compounds KC5 and KC6.

[3] = tested on: cucumber anthracnose (Colletotrichum orbiculare); assay: Protective effect against cucumber anthracnose on potted plants; conditions: 400 ppm, foliar spray
Protocol: as §1
The fungicidal activity was tested in vivo manner on the potted plants. The test compounds of the present invention were dissolved in proper solvent (choosing the solvent according their dissolving ability to the compounds, the solvents could be acetone, methanol or N,N-dimethylformide, etc. The volume ratio between solvent and liquid sprayed was equal to or less than 0.05) and dilute with water contain 0.1% Tween 80 to given concentrations. Compounds of present invention was sprayed onto the leaves of seedling according to the designed concentration. Meanwhile, water was set as the blank control, three replicates were set for each treatment, the spore suspension were inoculated on the second day after treatment, then the plants were placed in an artificial climate chamber (temperature: day 25° C., night 20° C., relative humidity 95 to 100%). 24 hours later, the plants were moved to green house to cultivated. The plants which not need to control humidity was inoculated spore suspension in green house and cultivated in green house directly. The results were investigated after the plants were fully infected relative to the blank control (usually one week). […]

With `Cc1c(NC(=O)c2cn(C)nc2C(F)(F)F)cccc1OC(C)C` [KC1, reference compound] the pest or weed control at 400 ppm [1] was 0%, the “protectant activity against corn rust” value ([2]; 6.25 ppm, table 3) was 50 and the “protectant activity against corn rust” value ([2]; 400 ppm, table 3) was 100.

With `CCCCC(C)Oc1cccc(NC(=O)c2c(C(F)F)nn(C)c2Cl)c1C` (stereo not shown) [Compound 11] the pest or weed control at 400 ppm [1] was 85%, the “protectant activity against corn rust” value ([2]; 0.39 ppm, table 4) was 100 and the “protectant activity against corn rust” value ([2]; 1.5625 ppm, table 4) was 100. For the same compound, the “protectant activity against corn rust” value ([2]; 6.25 ppm, table 4) was 100.

With `Cc1nn(C)c(Cl)c1C(=O)Nc1cccc(OC(C)C)c1C` [KC4, reference compound] the pest or weed control at 400 ppm [1] was 0%.

`CCCCC(C)Oc1cccc(NC(=O)c2c(C)nn(C)c2Cl)c1C` (stereo not shown) [Compound 4] was tested, and the “protective effect against cucumber anthracnose” value [3] was no less than 80% and the pest or weed control at 400 ppm [1] was 100%.

For `CCCCC(C)Oc1cccc(NC(=O)c2sc(C)nc2C(F)(F)F)c1C` (stereo not shown) [Compound 71], the pest or weed control at 400 ppm [1] was 100%, the “protectant activity against corn rust” value ([2]; 1.56 ppm, table 5) was 100 and the “protectant activity against corn rust” value ([2]; 6.25 ppm, table 5) was 100. For the same compound, the “protectant activity against corn rust” value ([2]; 400 ppm, table 5) was 100.

`CCCCC(C)Oc1cccc(NC(=O)c2cn(C)nc2C(C)C)c1C` (stereo not shown) [Compound 2] was tested, and the pest or weed control at 400 ppm [1] was 100%.

In the case of `CCCCC(C)Oc1cccc(NC(=O)c2cn(C)nc2C(F)(F)F)c1C` (stereo not shown) [Compound 13], the pest or weed control at 400 ppm [1] is reported as 100%, the “protectant activity against corn rust” value ([2]; 6.25 ppm, table 3) is reported as 100 and the “protectant activity against corn rust” value ([2]; 400 ppm, table 3) is reported as 100.

For `Cc1c(NC(=O)c2c(C(F)(F)F)nn(C)c2Cl)cccc1OC(C)C` [KC2, reference compound], the pest or weed control at 400 ppm [1] was 0%, the “protectant activity against corn rust” value ([2]; 0.39 ppm, table 4) was 0 and the “protectant activity against corn rust” value ([2]; 1.5625 ppm, table 4) was 65. The “protectant activity against corn rust” value ([2]; 6.25 ppm, table 4) was 100.

`CCCC(C)Oc1cccc(NC(=O)c2sc(C(F)(F)F)nc2CC)c1C` (stereo not shown) [Compound 111] was tested, and the pest or weed control at 400 ppm [1] was 100%.

In the case of `Cc1nn(C)cc1C(=O)Nc1cccc(OC(C)C)c1C` [KC3, reference compound], the pest or weed control at 400 ppm [1] is reported as 0%.

`Cc1nc(C)c(C(=O)Nc2cccc(OC(C)C)c2)s1` [KC5, reference compound] showed a pest or weed control at 400 ppm [1] of 0%.
